The source of these data is US20060079453A1, “Hla binding peptides and their uses” (priority 2002, published 2006).

What all share (assay): biochemical
Common to all, as to assay type: binding

The target in assay [1] is HLA-DR DRB4*0101 (DR53) (Homo sapiens, UniProt P01903+P13762, G164S).
The target of assay [2] is HLA-DR DRB1*0101 (DR1) (Homo sapiens, UniProt P01903+P01911, A100R/D57E/F55L/F60I/F76Y/I96L/L162R/M171V/P40L/Q125E/R42F/V115G/Y59C).
For assay [3], the target named is HLA-DR DRB1*0401 (DR4) (Homo sapiens, UniProt P01903+P01911, A100K/A169T/F76Y/I96L/K127E/L162R/M171V/N62H/P40V/Q125Y/R42H/S133A/S149N/S66Y/V115G/V209L/W38E).
In assay [4] the target is HLA-DR DRB1*1501 (DR15) (Homo sapiens, UniProt P01903+P01911).
Assay [5] has as its target HLA-DR DRB5*0101 (DR51) (Homo sapiens, UniProt P01903+Q30154).
Assay [6] concerns the target HLA-DR DRB1*0701 (DR7) (Homo sapiens, UniProt P01903+P01911, A100R/A102G/A103Q/D57E/D86V/E43K/F76Y/K127E/L162R/M171V/P40G/Q125H/Q99D/R33Q/R42Y/R54Q/S133A/S66F/T210M/V115G/Y107V/Y59L/Y89S). To be noted: DRB1 *0701.
Assay [7] concerns the target HLA-DR DRB1*1302 (DR13) (Homo sapiens, UniProt P01903+P01911, A100E/A169T/K41T/L162R/M171V/P40S/Q125H/Q178H/Q39Y/Q99D/R42S/S66N/T262R/V115G/W38E/Y61H). To be noted: read-out: DRBI *1302.

Read-outs that look alike come from different tables or passages of the source. No end group written: not given here. A value given as a limit tells only on which side of the number the result lay.

Chain of HLA-DR DRB1*1302 (DR13) (P01903 26-254 limits assumed, other chains not shown): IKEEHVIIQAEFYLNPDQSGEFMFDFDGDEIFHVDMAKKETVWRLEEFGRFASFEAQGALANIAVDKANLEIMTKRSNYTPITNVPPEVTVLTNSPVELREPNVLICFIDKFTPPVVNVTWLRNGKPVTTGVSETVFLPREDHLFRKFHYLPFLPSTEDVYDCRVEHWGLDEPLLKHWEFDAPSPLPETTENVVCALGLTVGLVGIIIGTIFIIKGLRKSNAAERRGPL

As for PQPFRKQQPYPQ, the IC50 in assay [1] (DRB4 *0101) was found to be 22 nM.

The compound IRNLALQTLP registered an IC50 in assay [1] (DRB4 *0101) of 3 nM.

In the case of PEFLEQRRAAVDTYC, the results for the IC50 in assay [2] (DRB1 *0101) and in assay [3] (DRB1 *0401) were 5000 nM and 80000 nM, respectively.

In the case of AAYAAAATAKAAA, the IC50 was 3.9 nM in assay [2] (read-out: DRB1 *0101) and 0.54 nM in assay [3] (read-out: DRB1 *0401).

For PQPFRPQQP, in assay [1] (DRB4 *0101), the IC50 turned out to be 19 nM.

Regarding YFNNFTVSFWLRVPK, the IC50 in assay [2] was ≥ 50000 nM.

Consider QFLGQQQPFPP, for which the IC50 in assay [1] (DRB4 *0101) was found to be 2.3 nM.

As to AAFFFFFGGGGGA, the IC50 in assay [2] (DRB1 *0101) was ≥ 50000 nM; in assay [3] (DRB1 *0401), 800 nM.

For (46)AAKTAAAFA, the IC50 in assay [2] (read-out: DRB1 *0101) was 5000 nM.

Consider AAKIFIGFFIDGA, for which the IC50 in assay [3] (DRB1 *0401) was 200 nM.

Regarding NPVVHFFKNIVT, the IC50 in assay [4] (DRBI *1501) was 23 nM; in assay [5] (DRB5 *0101), 10000 nM.

As for FSYFPSI [FSYFPSI], the IC50 in assay [2] (DRB1 *0101) is ≥ 50000 nM.

Compound PKPFRPQQPYPQ gave an IC50 in assay [1] (DRB4 *0101) of 3.4 nM.

PQPFRPQQPYPK came in with an IC50 in assay [1] (DRB4 *0101) of 22 nM.

As for LGQQQPFPPQ, the IC50 in assay [1] (DRB4 *0101) turned out to be 151 nM.

Regarding `CC[C@H](C)[C@H](NC(=O)[C@@H](NC(=O)[C@@H]1CCCN1C(=O)[C@H](Cc1ccccc1)NC(=O)[C@H](Cc1ccccc1)NC(=O)[C@H](Cc1ccc(O)cc1)NC(=O)[C@H](CCC(N)=O)NC(=O)[C@H](Cc1c[nH]c2ccccc12)NC(=O)[C@H](CC(N)=O)NC(=O)CNC(=O)[C@@H](N)C(C)C)C(C)C)C(=O)N[C@@H](Cc1ccccc1)C(=O)N[C@@H](CO)C(=O)N[C@@H](CCCCN)C(=O)N[C@@H](C)C(=O)O`, the IC50 came to 37 nM in assay [2] (DRB1 *0101), 100 nM in assay [6] and 4.1 nM in assay [3] (DRB1 *0401).

PQPFRPQQPYP had an IC50 in assay [1] (DRB4 *0101) of 14 nM.

In turn, QFLGQQQPFPPQ came in with an IC50 in assay [1] (DRB4 *0101) of 2.8 nM.

On to AAAKAAAAAAAAF, for which the IC50 in assay [2] (DRB1 *0101) was > 1670 nM; in assay [3] (DRB1 *0401), > 348 nM.

EGDAFELTVSC: the IC50 in assay [3] (read-out: DRB1 *0401) was determined as 572 nM.

In turn, PQPFRPQQPYPQ displayed an IC50 in assay [1] (DRB4 *0101) of 15 nM.

As for PKYFKQGFLKGAT, the results for the IC50 in assay [2] and in assay [3] were ≥ 50000 nM and 800 nM, respectively.

Regarding YARFLALTTLRARA, the IC50 in assay [2] (read-out: DRB1 *0101) turned out to be 0.98 nM; in assay [3] (read-out: DRB1 *0401) it was 0.28 nM.

In the case of ENPVVAFFKNIVTPR, the IC50 in assay [4] (DRBI *1501) was 2.8 nM; in assay [5] (DRB5 *0101), 302 nM.

As for P(X)KQNTLKLAT, the IC50 in assay [2] (read-out: DRB1 *0101) came to 1.7 nM.

In assay [5] (DRB5 *0101), GRLEYCLKDRRNFDI showed an IC50 of 64700 nM.

In turn, AAAKAAAAAAFAA registered an IC50 in assay [3] (DRB1 *0401) of 235 nM.

In the case of AAAKAAAAAAAFA, in assay [2] (DRB1 *0101), the IC50 was ≥ 50000 nM.

As for PKYGKQIDLKGAT, the IC50 in assay [2] (DRB1 *0101) was ≥ 50000 nM.

Take QKQLLTNHLINTPKI: in assay [1] (read-out: DRB4 *0101), the IC50 was 904 nM.

For PQPFRPQQPYKQ, the IC50 in assay [1] (DRB4 *0101) was determined as 35 nM.

Take AADDDDDDDDDDA: in assay [2] (DRB1 *0101), the IC50 is ≥ 50000 nM.

Regarding KYVKQNTLKLAT, the IC50 in assay [2] was determined as 9.9 nM; in assay [3], 6.2 nM.

As for ENPVVHFFKIHVTPA, in assay [4] (read-out: DRBI *1501), the IC50 was found to be 2.5 nM.

(43)AAIGGIFIFKKDA: the IC50 in assay [3] (read-out: DRB1 *0401) came to 800 nM.

Take LEDLLMGTLGIVCPI: the figures for the IC50 in assay [1] (read-out: DRB4 *0101), in assay [7] and in assay [5] (read-out: DRB5 *0101) were 1800 nM, 1690 nM and 9480 nM, respectively.

For AAAKAAAAFAAAA, in assay [2] (DRB1 *0101), the IC50 was ≥ 50000 nM.

Take (43)AADFGIFIDFHA: in assay [3] (read-out: DRB1 *0401), the IC50 was 235 nM.

In the case of VGIRTPVLTSLFNKV, the IC50 in assay [1] (read-out: DRB4 *0101) was found to be 97 nM; in assay [5] (read-out: DRB5 *0101), 80 nM.

Take KQPFRPQQPYPQ: the IC50 in assay [1] (DRB4 *0101) is 56 nM.

For FFKNIVTFFKNIVT, the IC50 is ≥ 50000 nM in assay [2] (DRB1 *0101), > 12500 nM in assay [6] and > 667 nM in assay [3] (DRB1 *0401).

As to IRNLALQTLPAMCNVY, in assay [1] (DRB4 *0101), the IC50 stood at 1.9 nM.
